System: Streptococcal cell wall (SCW)-induced arthritis in female Lewis rats
Assay: Rat streptococcal cell wall (SCW)-induced arthritis: ankle swelling and von Frey mechanical threshold
Type: in vivo
Conditions: P2X7 antagonist 1 30 mg/kg oral bid, Etanercept 0.5 mg/kg s.c.; for % reduction of AUC (compared to arthritic vehicle control), Ankle swelling: AUC from day -1 to day 6 post-induction; for % reduction of AUC (compared to arthritic vehicle control), Von Frey threshold: von Frey filaments on days -1, 1, 3, 5
Description: Assessment of Anti-Inflammatory Activity of TNFα Inhibitor/P2X7 Anatagonist Combinations in Rat Streptococcal Cell Wall-Induced Arthritis. ^1 1. Experimental procedure based on that described by Carlson R P, Jacobsen P B; ‘Comparison of adjuvant and streptococcal cell wall-induced arthritis in the rat’ in Morgan D W, Marshall L A, editors; In Vivo Models of Inflammation. Basel: Birkhauser Verlag; 1999.
Streptococcal cell wall (SCW)-induced arthritis was induced in the left ankle of female Lewis rats. Animals were sensitised by intra-articular injection of 5 μg (in 20 μL) SCW (Lee Laboratories) into the left ankle. Ankle swelling was assessed 3 days after injection and non-responders (animals with no apparent ankle swelling) were rejected. Responding animals were randomly allocated to the test groups.
Arthritis was induced 21 days after sensitisation by intravenous (iv) injection of SCW (100 μg in 500 μL saline). Animals were monitored and assessed on a daily basis through to termination 6 days after induction. The rats were housed on sawdust and provided with food and water ad libitum.
In this example the P2X7 antagonist 1, was orally dosed at 30 mg/kg (4 mL/kg, bid). The compound was dosed as a suspension in 1% (w/v) methylcellulose in deionised water and was freshly prepared on a daily basis. Dosing commenced 1 day prior to induction of arthritis and continued through to termination on day 6 post-induction. Etanercept (0.5 mg/kg) was administered by subcutaneous injection (1 mL/kg) 1 day prior to induction of arthritis and then on days 1, 3 and 5 post-induction.
Ankle diameters were measured with vernier callipers on a daily basis from day −1. Mechanical thresholds were assessed using von Frey filaments on days −1, 1, 3 and 5. The filaments were applied in increasing weights to the ankle region on the footpad of both feet. The first filament to induce a withdrawal response was considered to be the threshold.
Effects on ankle swelling and mechanical threshold were calculated on an area under the curve (AUC) basis, as the sum of the differences from individual day −1 values. The size and direction of the interaction was calculated and data analysis performed by ANOVA followed by Dunnett's test on the AUC data (SAS version 8.01).

Cc1ccc(C(=O)N2CC3CNCC(C2)O3)cc1NC(=O)CC12CC3CC(CC(C3)C1)C2.Cl [P2X7 antagonist 1, N-[2-Methyl-5-(9-oxa-3,7-diazabicyclo[3.3.1]non-3-ylcarbonyl)phenyl]-tricyclo[3.3.1.1^3,7]decane-1-acetamide, hydrochloride]
% reduction of AUC (compared to arthritic vehicle control), Ankle swelling: 28.5 ± 13.5% | % reduction of AUC (compared to arthritic vehicle control), Von Frey threshold: 21.1 ± 10.9%

Etanercept
% reduction of AUC (compared to arthritic vehicle control), Ankle swelling: 44.0 ± 4.7 % | % reduction of AUC (compared to arthritic vehicle control), Von Frey threshold: 7.4 ± 6.8%

Reference: patent US20070032465A1, “Pharmaceutical composition comprising a p2x7-receptor antagonist and a tumour necrosis factor alpha” (priority 2003, published 2007)
